# ChEMBL document CHEMBL4004849, “Tetrazolylmethyl quinolines: Design, docking studies, synthesis, anticancer and antifungal analyses” (2017)
# The source made the active and inactive calls. No cut-off for these calls is given here.
# Key:
# Format in all cases: functional
# [1] = system: SN12C; test: Growth inhibition of human SN12C cells at 10^-5 M incubated for 48 hrs by sulforhodamine B assay relative to control
# [2] = system: SK-MEL-2; test: Growth inhibition of human SK-MEL-2 cells at 10^-5 M incubated for 48 hrs by sulforhodamine B assay relative to control
# [3] = system: NCI/ADR-RES; test: Growth inhibition of human NCI-ADR-RES cells at 10^-5 M incubated for 48 hrs by sulforhodamine B assay relative to control
# [4] = system: T47D; test: Growth inhibition of human T47D cells at 10^-5 M incubated for 48 hrs by sulforhodamine B assay relative to control
# [5] = system: 786-0; test: Growth inhibition of human 786-0 cells at 10^-5 M incubated for 48 hrs by sulforhodamine B assay relative to control
# [6] = system: DU-145; test: Growth inhibition of human DU145 cells at 10^-5 M incubated for 48 hrs by sulforhodamine B assay relative to control
# [7] = system: HL-60(TB); test: Growth inhibition of human HL-60(TB) cells at 10^-5 M incubated for 48 hrs by sulforhodamine B assay relative to control
# [8] = system: LOX IMVI; test: Growth inhibition of human LOXIMVI cells at 10^-5 M incubated for 48 hrs by sulforhodamine B assay relative to control
# [9] = system: HCT-15; test: Growth inhibition of human HCT15 cells at 10^-5 M incubated for 48 hrs by sulforhodamine B assay relative to control
# [10] = system: TK-10; test: Growth inhibition of human TK10 cells at 10^-5 M incubated for 48 hrs by sulforhodamine B assay relative to control
# [11] = system: Candida albicans; test: Antifungal activity against Candida albicans after 24 hrs by serial dilution method
# [12] = system: EKVX; test: Growth inhibition of human EKVX cells at 10^-5 M incubated for 48 hrs by sulforhodamine B assay relative to control
# [13] = system: SNB-75; test: Growth inhibition of human SNB75 cells at 10^-5 M incubated for 48 hrs by sulforhodamine B assay relative to control
SMILES,growth inhibition (GI) [1],growth inhibition (GI) [2],growth inhibition (GI) [3],growth inhibition (GI) [4],growth inhibition (GI) [5],growth inhibition (GI) [6],growth inhibition (GI) [7],growth inhibition (GI) [8],growth inhibition (GI) [9],growth inhibition (GI) [10],MIC [11] [µg/mL],growth inhibition (GI) [12],growth inhibition (GI) [13],also measured
Cc1ccc2nc(Cl)c(Cn3nnnc3Cc3ccccc3)cc2c1,Active,Active,Active,Active,Active,Active,Active,Active,Active,Active,25,Active,Active,–
Clc1nc2ccccc2cc1Cn1nnc(CSc2ccccc2)n1,Active,Active,Active,Active,Active,Active,Active,Active,Active,Active,10,Active,Active,–
Fc1ccc2nc(Cl)c(Cn3nnc(CSc4ccccc4)n3)cc2c1,Active,Active,Active,Active,Active,Active,Active,Active,Active,Active,50,Active,Active,–
Clc1nc2ccc(Br)cc2cc1Cn1nnnc1CSc1ccccc1,Active,Active,Active,Active,Active,Active,Active,Active,Active,Active,25,Active,Active,–
Fc1ccc2nc(Cl)c(Cn3nnnc3Cc3ccccc3)cc2c1,Active,Active,Active,Active,Active,Active,Active,Active,Active,Active,25,Active,Active,–
Cc1ccc2nc(Cl)c(Cn3nnnc3CSc3ccccc3)cc2c1,Active,Active,Active,Active,Active,Active,Active,Active,Active,Active,10,Active,Active,–
Fc1ccc2nc(Cl)c(Cn3nnnc3CSc3ccccc3)cc2c1,Active,Active,Active,Active,Active,Active,Active,Active,Active,Active,50,Active,Active,–
Clc1nc2ccccc2cc1Cn1nnc(Cc2ccccc2)n1,–,–,–,–,–,–,–,–,–,–,25,–,–,"inhibition of growth at 10 µM ([1]; read-out: GI): 29.7%; inhibition of growth at 10 µM ([2]; SK-MEL-2, 48 h, read-out: GI): 41.2%; inhibition of growth at 10 µM ([3]; read-out: GI): 47.9%; inhibition of growth at 10 µM ([4]; read-out: GI): 73.9%; inhibition of growth at 10 µM ([5]; 786-0, 48 h, read-out: GI): 27.1%; inhibition of growth at 10 µM ([6]; DU-145, 48 h, read-out: GI): 24.8%; inhibition of growth at 10 µM ([7]; HL-60, 48 h, read-out: GI): 12.1%; inhibition of growth at 10 µM ([8]; read-out: GI): 46.4%; inhibition of growth at 10 µM ([9]; HCT-15, 48 h, read-out: GI): 35%; inhibition of growth at 10 µM ([10]; TK-10, 48 h, read-out: GI): 39.1%; inhibition of growth at 10 µM ([12]; read-out: GI): 63.9%; inhibition of growth at 10 µM ([13]; SNB-75, 48 h, read-out: GI): 44.6%"
Fc1ccc2nc(Cl)c(Cn3nnc(Cc4ccccc4)n3)cc2c1,Active,Active,Active,Active,Active,Active,Active,Active,Active,Active,25,Active,Active,–
Cc1ccc2nc(Cl)c(Cn3nnc(CSc4ccccc4)n3)cc2c1,Active,Active,Active,Active,Active,Active,Active,Active,Active,Active,10,Active,Active,–
COc1ccc2nc(Cl)c(Cn3nnnc3Cc3ccccc3)cc2c1,Active,Active,Active,Active,Active,Active,Active,Active,Active,Active,25,Active,Active,–
Clc1nc2ccc(Br)cc2cc1Cn1nnc(Cc2ccccc2)n1,Active,Active,Active,Active,Active,Active,Active,Active,Active,Active,10,Active,Active,–
